Data reported in patent EP1268487B1, “TRICYCLIC PROTEIN KINASE INHIBITORS” (Wyeth, priority 2000, dated 2001).
In brackets after ≈: the same amount, converted by molar mass.

Columns and labels:
MDA435 = experiment: Inhibition of cancer cell growth as measured by cell number (Sulforhodamine B); type: cell-based; details: Homo sapiens, 48 hours exposure
Protocol: (§1) Human tumor cell lines were plated in 96-well plates (250 µl/well, 1-6 x 10^4 cells/ml) in RPMI 1640 medium, containing 5% FBS (Fetal Bovine Serum). […] After 48 hours exposure to test compounds, cells were fixed with trichloroacetic acid, and stained with Sulforhodamine B. After washing with trichloroacetic acid, bound dye was solubilized in 10 mM Tris base and optical density was determined using a plate reader. Under conditions of the assay the optical density is proportional to the number of cells in the well. IC50s (concentrations causing 50% inhibition of cell growth) were determined from the growth inhibition plots. The test procedure is described in details by Philip Skehan et. al, J.Natl. Canc. Inst., 82, 1107-1112 (1990). […] Information about some of the cell lines used in these test procedures is available from the American Type Tissue Collection: Cell Lines and Hybridomas, 1994 Reference Guide, 8th Edition. The Her2Neu cell line is a 3T3 line that has been transfected with Her2 receptor kinase.

SKBR3 = experiment: as above; type: cell-based; details: Homo sapiens, SK-BR-3; 48 hours exposure
Protocol: as §1

Her2Neu = experiment: as above; type: cell-based; details: 48 hours exposure; 3T3 line transfected with Her2 receptor kinase
Protocol: as §1

3T3 = experiment: as above; type: cell-based; details: Mus musculus, NIH3T3; 48 hours exposure
Protocol: as §1

A431 = experiment: as above; type: cell-based; details: Homo sapiens, A-431; 48 hours exposure
Protocol: as §1

SW620 = experiment: as above; type: cell-based; details: Homo sapiens, SW-620; 48 hours exposure
Protocol: as §1

[1] = target: T1, Epidermal Growth Factor Receptor Kinase (EGF-R) (Homo sapiens, UniProt P00533); experiment: Inhibition of Epidermal Growth Factor Receptor Kinase (EGF-R) using recombinant enzyme; type: biochemical; details: for inhibition at 0.5 µM: 0.5 µM concentration of test compound
T1 construct: containing the EGFR cDNA encoding amino acids 645 - 1186 preceded by Met-Ala-(His)6; Met-Ala-(His)6 (N); made in house; host or cells: Sf9 insect cells (baculovirus vHcEGFR52)
Protocol: Representative test compounds were evaluated for their ability to inhibit the phosphorylation of the tyrosine residue of a peptide substrate catalyzed by the enzyme epidermal growth factor receptor kinase. The peptide substrate (RR-SRC) has the sequence arg-arg-leu-ile-glu-asp-ala-glu-tyr-ala-ala-arg-gly. The enzyme used in this assay is the His-tagged cytoplasmic domain of EGFR. A recombinant baculovirus (vHcEGFR52) was constructed containing the EGFR cDNA encoding amino acids 645 - 1186 preceded by Met-Ala-(His)6. Sf9 cells in 100 mm plates were infected at an moi of 10 pfu/cell and cells were harvested 48 hours post infection. A cytoplasmic extract was prepared using 1% Triton X-100 and applied to Ni-NTA column. After washing the column with 20 mM imidazole, HcEGFR was eluted with 250 mM imidazole (in 50 mM Na2HPO4, pH 8.0, 300 mM NaCl). Fractions collected were dialyzed against 10 mM HEPES, pH 7.0, 50 mM NaCl, 10% glycerol, 1µg/mL antipain and leupeptin and 0.1 mM Pefabloc SC. The protein was frozen in dry ice/methanol and stored -70° C.
Test compounds were made into 10 mg/mL stock solutions in 100% dimethylsulfoxide (DMSO). Prior to experiment, stock solutions were diluted to 500 µM with 100% DMSO and then serially diluted to the desired concentration with HEPES buffer (30 mM HEPES pH 7.4).
For the enzyme reaction, 10 µL of each inhibitor (at various concentrations) were added to each well of a 96-well plate. To this was added 3 µL of enzyme (1:10 dilution in 10mM HEPES, pH 7.4 for final conc. of 1:120). This was allowed to sit for 10 minutes on ice and was followed by the addition of 5 µl peptide (80 uM final conc.), 10µl of 4X Buffer (Table A), 0.25 µL ^33P-ATP and 12 µL H2O. The reaction was allowed to run for 90 minutes at room temperature and was followed by spotting the entire volume on to precut P81 filter papers. The filter discs were washed 2X with 0.5% phosphoric acid and radioactivity was measured using a liquid scintillation counter. Table A
The inhibition data for representative compounds of the invention are shown below in TABLE 1. The IC50 is the concentration of test compound needed to reduce the total amount of phosphorylated substrate by 50%. The % inhibition of the test compound was determined for at least three different concentrations and the IC50 value was evaluated from the dose response curve. […] CPM(control) is in units of counts per minute and was a number expressing the amount of radiolabeled ATP (γ-^33P) incorporated into the RR-SRC peptide substrate by the enzyme after 90 minutes at room temperature in the absence of test compound as measured by liquid scintillation counting. The CPM values were corrected for the background counts produced by ATP in the absence of the enzymatic reaction. Where it was possible to determine an IC50 value, this is reported in TABLE 1 otherwise the % inhibition at 0.5 µM concentration of test compound is shown in TABLE 1.

c-Met = target: T2, c-Met (Homo sapiens, UniProt P08581); experiment: DELFIA assay for c-Met receptor kinase inhibitors; type: biochemical
T2 construct: The cytoplasmic domain of c-Met was generated by reverse transcriptase-polymerase chain reaction; His tag (from pFastBac-HTc vector; purified on Ni-NTA/Talon); made in house; host or cells: Sf9 insect cells (baculovirus)
Protocol: The c-Met kinase assay was performed as a DELFIA (dissociation enchanced lanthanide fluorometric immunoassay), an ELISA-like protocol based upon time-resolved fluorometry as described previously [Braunwalder, A. F., Yarwood, D.R., Sills, M.A., and Lipson, K.E., Anal. Biochem. 238, 159-164 (1996)]. The protocol was adopted for the screening of inhibitors of the kinase activity of recombinant c-Met. [Loganzo, F., and. Hardy, C., American Biotechnology Laboratory 16(13), 26-28 (1998)]. The cytoplasmic domain of c-Met was generated by reverse transcriptase-polymerase chain reaction using RNA isolated from human mammary epithelial cells as template, cloned into the pFastBac-HTc vector (Life Technologies) and protein expressed in Sf9 insect cells by baculovirus infection. Protein was purified by imidazole elution from Ni-NTA resin (Invitrogen, Carlsbad, CA) or Talon resin (Clontech, Palo Alto, CA). Various conditions were evaluated for the kinase screening protocol and screening was accomplished with the following method. Polystyrene Maxisorp plates (Nunc) were pre-coated for 1 hour to overnight at room temperature with 5 µg/ml poly(Glu4-Tyr) diluted in Tris-buffered saline (TBS). Plates were washed 3X with TBS. c-Met protein preparation was diluted 1:80 into 0.1% BSA/ 4 mM HEPES. A master mix was prepared consisting of: 1 volume of diluted c-Met, 1 volume of 5X buffer (20 mM HEPES, pH 7.4; 2 mM MnCl2; 100 µM Na3VO4; 1 mM DTT), 0.9 volume of water. Master mix (29 µl) was added to the wells of peptide-coated microtiter plates. For assays where c-Met autophosphorylation was evaluated, plates were uncoated and c-Met was diluted into 4 mM HEPES at 1:40 without BSA. Compounds (1 µl) at various dilutions (1 mM to 0.1 µM) prepared in DMSO were added and mixed well with an automatic piptettor. After incubation 20 minutes at room temperature, the reaction was initiated with 20 µl of 62.5 µM ATP/ 50 mM MgCl2 (final 25 µM ATP/ 20 mM MgCl2 in assay). Reactions were incubated 45 minutes at room temperature. Plates were then washed 3X with 100 µl each of DELFIA wash buffer (Wallac). Antibody binding was performed by adding 75 µl of Europium-conjugated anti-phosphotyrosine diluted 1:2000 in Assay Buffer (Wallac) for 1 hour at room temperature. Plates were washed 3X with DELFIA wash buffer. Detection was done by addition of 100 µl of Enhancement Solution (Wallac). After 30 minutes, plates were read in a Wallac VICTOR-2 time-resolved fluorometer. Inhibition data was reported as europium counts for compound treated wells normalized to control counts. IC50 values were obtained by using log doses of compound and calculated using Data Analysis Toolbox software, version 1.0.2 (MDL Information Systems, Inc.).

T1 sequence (P00533 669-1210): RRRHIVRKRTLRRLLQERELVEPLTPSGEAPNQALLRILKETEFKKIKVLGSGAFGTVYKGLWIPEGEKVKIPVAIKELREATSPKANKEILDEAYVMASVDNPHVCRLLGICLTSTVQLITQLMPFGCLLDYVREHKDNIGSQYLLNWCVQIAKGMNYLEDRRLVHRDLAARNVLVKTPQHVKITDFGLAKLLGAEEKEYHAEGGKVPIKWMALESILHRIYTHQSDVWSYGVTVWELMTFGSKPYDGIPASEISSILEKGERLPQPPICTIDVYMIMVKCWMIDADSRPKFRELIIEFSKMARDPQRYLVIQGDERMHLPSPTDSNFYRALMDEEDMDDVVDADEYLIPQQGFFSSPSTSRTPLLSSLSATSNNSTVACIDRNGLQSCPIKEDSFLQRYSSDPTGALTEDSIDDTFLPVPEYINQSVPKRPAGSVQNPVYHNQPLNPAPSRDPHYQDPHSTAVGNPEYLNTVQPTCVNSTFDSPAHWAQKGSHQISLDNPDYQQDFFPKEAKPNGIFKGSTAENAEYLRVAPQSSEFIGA
T2 sequence (P08581 956-1390 limits assumed): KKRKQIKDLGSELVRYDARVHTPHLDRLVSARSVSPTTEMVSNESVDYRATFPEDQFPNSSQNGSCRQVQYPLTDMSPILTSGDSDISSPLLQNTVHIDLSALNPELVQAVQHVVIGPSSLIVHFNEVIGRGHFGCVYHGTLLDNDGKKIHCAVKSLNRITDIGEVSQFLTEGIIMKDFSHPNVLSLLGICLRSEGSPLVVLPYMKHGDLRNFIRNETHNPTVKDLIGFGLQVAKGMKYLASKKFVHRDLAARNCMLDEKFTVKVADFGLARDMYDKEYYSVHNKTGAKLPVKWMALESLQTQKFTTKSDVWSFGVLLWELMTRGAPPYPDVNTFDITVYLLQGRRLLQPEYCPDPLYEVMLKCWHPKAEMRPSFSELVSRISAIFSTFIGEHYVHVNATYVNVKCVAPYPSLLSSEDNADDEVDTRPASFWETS

Row | IC50 (MDA435) [µg/mL] | IC50 (SKBR3) [µg/mL] | IC50 (Her2Neu) [µg/mL] | IC50 (A431) [µg/mL] | IC50 (SW620) [µg/mL] | inhibition at 0.5 µM [1] [%] | inhibition at 10 µg/mL (c-Met) [%] | IC50 ([1]; recombinant enzyme) [nM] | SMILES | IC50 (3T3) [µg/mL]
1 | 2.36 (≈ 5.2 µM) | 0.649 (≈ 1.43 µM) | > 5 | 0.47 (≈ 1.04 µM) | 1.5 (≈ 3.3 µM) | 53.5 | 66 |  | CN(C)CCCCN1CCOc2cc3ncc(C#N)c(Nc4ccc(F)c(Cl)c4)c3cc21 [Example 12, 9-(3-Chloro-4-fluoroanilino)-1-[4-(dimethylamino)butyl]-2,3-dihydro-1H-[1,4]oxazino[3,2-g]quinoline-8-carbonitrile] | 1.49 (≈ 3.28 µM)
2 | > 5 | 2.53 (≈ 5.68 µM) | > 5 | 1.9 (≈ 4.27 µM) | > 5 | 73 | 42 | 1 | N#Cc1cnc2cc3c(cc2c1Nc1ccc(F)c(Cl)c1)N(CCCCCl)CCO3 [Example 11, 1-(4-Chlorobutyl)-9-(3-chloro-4-fluoroanilino)-2,3-dihydro-1H-[1,4]oxazino[3,2-g]quinoline-8-carbonitrile] | 3.89 (≈ 8.74 µM)
